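A five-concentration, 48-hour dose response in 96-well plates underlies each endpoint, interpolated linearly between surrounding concentrations. At the TGI there is no net growth.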 *1 amine or outer side, *2 acyl side, *3 side chain or, on linkers, in order; H or OH if unused. Where a SMILES comes first, the peptide text is derived from it. [ ]: non-standard residue; d: D form. The star is where a group is joined. X31 = CC(=O)N(C)SCC(N[*:1])C(=O)[*:2]; Fmoc = O=C(OCC1c2ccccc2-c2ccccc21)*; For = O=C*
Assays:
Test in all cases: inhibition of tumour cell growth, NCI panel, 48 h
BT-549 breast = system: BT-549 breast
RXF 393 renal = system: RXF 393 renal
HT29 colon = system: HT29 colon
DU-145 prostate = system: DU-145 prostate
SK-MEL-2 melanoma = system: SK-MEL-2 melanoma
MCF7 breast = system: MCF7 breast
SK-MEL-28 melanoma = system: SK-MEL-28 melanoma
OVCAR-5 ovarian = system: OVCAR-5 ovarian
SK-MEL-5 melanoma = system: SK-MEL-5 melanoma
M14 melanoma = system: M14 melanoma
PC-3 prostate = system: PC-3 prostate

CC(=O)N(C)SCC(NC(=O)C(Cc1ccccc1)NC(=O)OCC1c2ccccc2-c2ccccc21)C(=O)NC(Cc1ccccc1)C(=O)NC(Cc1cn(C=O)c2ccccc12)C(=O)NC(CCCCNC(=O)OCC1c2ccccc2-c2ccccc21)C(=O)NC(C(=O)NC(CSN(C)C(C)=O)C(=O)NC(C(N)=O)C(C)O)C(C)O (stereo unspecified) (Fmoc-F[X31]FW(For)K(Fmoc)T[X31]T-NH2; configuration not given here)
TGI (BT-549 breast): > 100 µM
TGI (RXF 393 renal): 72.3 µM
TGI (HT29 colon): > 100 µM
TGI (DU-145 prostate): > 100 µM
TGI (SK-MEL-2 melanoma): > 100 µM
TGI (MCF7 breast): > 100 µM
TGI (SK-MEL-28 melanoma): > 100 µM
TGI (OVCAR-5 ovarian): > 100 µM
TGI (SK-MEL-5 melanoma): > 100 µM
TGI (M14 melanoma): > 100 µM
TGI (PC-3 prostate): > 100 µM
